# Counter-ions that a name gives are not always drawn.
# Columns and labels:
# LD50 (acute toxicity) = conditions: in vivo
# Tetrabenazine = assay: animal or person; format: in vivo; conditions: read-out: ED50 Tetrabenazine Antagonism
# in vivo = format: in vivo; conditions: in vivo; ratio of LD50 to ED50 tetrabenazine antagonism (head is a drawing); read-out: Dosage [drawing 7]
smiles,measurement,setting,value
"Cc1ccc2c(c1)c1c3n2CCNC3CCC1.Cl (centres unmarked) [8-methyl-2,3,3a,4,5,6-hexahydro-1H-pyrazino[3,2,1-jk]carbazole-hydrochloride, reference compound]",LD50,LD50 (acute toxicity),122 mg/kg
same,ED50,Tetrabenazine,14 mg/kg
"Cc1ccc2c(c1)c1c3n2CCN=C3CCC1 [Example 1, 8-methyl-2,4,5,6-tetrahydro-1H-pyrazino[3,2,1-jk]carbazole]",LD50,LD50 (acute toxicity),72 mg/kg
same,selectivity ratio,in vivo,18
same,ED50,Tetrabenazine,4 mg/kg
"COc1ccc2c(c1)c1c3n2CCN=C3CCC1 [Example 2, 8-methoxy-2,4,5,6-tetrahydro-1H-pyrazino[3,2,1-jk] carbazole-hydrochlorides]",LD50,LD50 (acute toxicity),37 mg/kg
same,selectivity ratio,in vivo,18.5
same,ED50,Tetrabenazine,2 mg/kg

# — patent US4258043A, “Pyrazino-carbazoles, process for the production thereof and pharmaceutical agents” (Cassella Aktiengesellschaft, priority 1979, dated 1981)
